Where two headings read alike, the source gives them in different places.

Data on two compounds can be found in paper PMC6430500, “3-Fluoro-4-hydroxyprolines: Synthesis, Conformational Analysis, and Stereoselective Recognition by the VHL E3 Ubiquitin Ligase for Targeted Protein Degradation” (Journal of the American Chemical Society, 2018).

Assay type in all cases: cell-based
For test [1], the target named is T1, Brd3 (Homo sapiens, UniProt Q15059).
T1 construct: endogenous in cells; host or cells: HeLa
T1 sequence (Q15059 whole entry): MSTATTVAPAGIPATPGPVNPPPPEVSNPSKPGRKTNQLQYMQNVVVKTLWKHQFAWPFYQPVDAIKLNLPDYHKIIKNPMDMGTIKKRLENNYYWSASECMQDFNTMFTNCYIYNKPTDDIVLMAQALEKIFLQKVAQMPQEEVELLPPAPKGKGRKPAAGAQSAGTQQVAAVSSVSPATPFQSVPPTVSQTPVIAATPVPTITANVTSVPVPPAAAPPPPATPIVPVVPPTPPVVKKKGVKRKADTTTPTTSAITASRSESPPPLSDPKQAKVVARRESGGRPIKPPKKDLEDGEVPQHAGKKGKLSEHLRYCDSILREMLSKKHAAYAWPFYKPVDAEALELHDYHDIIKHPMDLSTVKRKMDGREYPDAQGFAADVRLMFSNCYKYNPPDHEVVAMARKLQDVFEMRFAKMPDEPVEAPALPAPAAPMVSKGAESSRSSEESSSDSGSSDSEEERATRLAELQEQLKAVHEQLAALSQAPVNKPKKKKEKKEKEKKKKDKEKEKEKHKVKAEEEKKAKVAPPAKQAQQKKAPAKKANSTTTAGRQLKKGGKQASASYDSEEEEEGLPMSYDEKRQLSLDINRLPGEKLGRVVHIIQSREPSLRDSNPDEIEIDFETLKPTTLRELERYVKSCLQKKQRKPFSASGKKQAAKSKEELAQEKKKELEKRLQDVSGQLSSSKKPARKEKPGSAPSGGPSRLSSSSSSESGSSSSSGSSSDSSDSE
Kind of test: BET protein degradation in HeLa cells, Western blot. The conditions noted are these: 24 h. As for the experimental part: (§1) HeLa and A549 cells were kept in DMEM (Gibco) supplemented with 10%(v/v) FBS (Gibco), 2 mM L-glutamine (Gibco), penicillin (100 units /mL) and streptomycin (100 µ g/mL) (Gibco). MV4;11 cells were kept in RPMI 1640 supplemented with 10%(v/v) FBS (Gibco), 2 mM L-glutamine (Gibco), penicillin (100 units /mL) and streptomycin (100 µg/mL) (Gibco). Cells were kept at 37 °C, 5% CO2.
(§2) Testing compounds in cells
(§3) HeLa cells (3 x 105) were seeded onto each well on a six-well plate 24 h before treatment with test compounds. To treat the cells with the test compounds, medium was replaced with fresh medium containing specified concentration of test compounds for specified time. At the end of treatment, cells were washed with PBS and then were lysed by applying RIPA buffer (Sigma, R0278) supplemented with Protease inhibitor (Roche, # 04693159001) and Benzonase (Sigma, E1014). Lysate was clarified by centrifugation (20,000 x g, 10 min, 4 °C). Supernatant was collected and protein concentration of was determined by BCA assay. The rest of the clarified lysate was kept at -80° C before further […]
(§4) Protein on gel was transferred to nitrocellulose membrane using Bio-Rad Transblot system according to manufacturer guidelines. Blots were probed with anti- Brd4 (AbCam, ab128874), anti-Brd3 (AbCam, ab50818), anti- Brd2 (AbCam, ab139690) and anti-β-actin (Cell Signaling, no. 4970) antibodies. Blots were developed with secondary anti-mouse IgG (Licor, 926-32210) or anti-rabbit IgG (Licor, 926- 32213) antibodies from Licor and bands visualized using Bio-Rad ChemiDoc MP […]
(§5) Western Blot Quantification#
(§6) Image processing and band intensity quantification were performed using Bio-Rad Image Lab software version 6.0.0. Reported band intensities are normalized to loading control, i.e., β-actin or tubulin for total lysates.
Background: A western blot detects proteins with antibodies after separation by electrophoresis.

Test [2] concerns the target T2, Brd2 (Homo sapiens, UniProt P25440).
T2 construct: endogenous in cells; host or cells: HeLa
The description is as above. The conditions noted are these: 24 h. As for the experimental part: as §1, §2, §3, §4, §5, §6

Test [3] relates to MV4;11 cells. As to the kind of experiment: CellTiter-Glo cell viability assay. The conditions noted are these: for EC50: MV4-11, 72 h. As for the experimental part: MV4;11 cells (15000 cells per well) were dosed for 72 h with compounds serially diluted (1:3) on a clear-bottom 384-well plate with a final concentration of 0.05% (v/v) DMSO. After treatment, Promega CellTiter-Glo luminescent cell viability assay (G7572) was added to the cells according to the manufacturer instructions. The signal from each well was recorded on a BM G Labtech Pherastar luminescence plate reader with recommended settings.
Normalized data were analyzed and plotted with Graphpad Prism software in the ‘log(inhibitor) vs. response -- Variable slope (four parameters)’ module. EC50 values of each test compound were […]
On the technique in general: Cellular ATP, detected with luciferase, serves as a proxy for viable cell number.

T2 sequence (P25440 whole entry): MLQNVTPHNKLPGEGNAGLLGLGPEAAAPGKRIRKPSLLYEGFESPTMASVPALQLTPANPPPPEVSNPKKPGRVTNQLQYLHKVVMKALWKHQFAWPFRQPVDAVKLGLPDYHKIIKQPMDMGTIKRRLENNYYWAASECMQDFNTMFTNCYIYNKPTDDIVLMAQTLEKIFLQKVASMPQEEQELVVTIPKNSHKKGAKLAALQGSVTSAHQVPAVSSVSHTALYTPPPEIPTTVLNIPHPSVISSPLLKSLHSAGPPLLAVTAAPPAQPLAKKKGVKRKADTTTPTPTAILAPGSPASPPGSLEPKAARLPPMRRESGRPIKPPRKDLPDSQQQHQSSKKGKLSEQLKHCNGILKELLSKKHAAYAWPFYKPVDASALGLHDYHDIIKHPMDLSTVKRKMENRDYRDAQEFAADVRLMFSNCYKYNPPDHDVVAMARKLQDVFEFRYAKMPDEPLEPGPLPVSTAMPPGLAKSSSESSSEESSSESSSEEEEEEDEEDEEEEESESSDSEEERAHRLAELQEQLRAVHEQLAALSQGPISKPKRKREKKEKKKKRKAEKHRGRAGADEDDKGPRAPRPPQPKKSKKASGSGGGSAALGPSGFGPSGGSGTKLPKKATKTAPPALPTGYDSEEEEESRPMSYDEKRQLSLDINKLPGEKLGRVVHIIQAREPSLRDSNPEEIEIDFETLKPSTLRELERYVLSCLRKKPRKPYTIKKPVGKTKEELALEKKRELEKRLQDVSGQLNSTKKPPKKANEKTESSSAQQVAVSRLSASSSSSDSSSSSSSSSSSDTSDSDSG

The term DC50 denotes the concentration giving 50% degradation. Read a high DC50 as a less potent degrader. Take `Cc1ncsc1-c1ccc(CNC(=O)[C@@H]2[C@H](F)[C@@H](O)CN2C(=O)[C@@H](NC(=O)COCCOCCOCCNC(=O)C[C@@H]2N=C(c3ccc(Cl)cc3)c3c(sc(C)c3C)-n3c(C)nnc32)C(C)(C)C)cc1` [15b]: the DC50 in test [1] and in test [2] was roughly 3000 nM throughout. Besides, the “antiproliferative effect (in words)” value in test [3] (72 h, compared to MZ1 or 15a) is “much weaker antiproliferative effect”.

Regarding `Cc1ncsc1-c1ccc(CNC(=O)[C@@H]2[C@@H](F)[C@@H](O)CN2C(=O)[C@@H](NC(=O)COCCOCCOCCNC(=O)C[C@@H]2N=C(c3ccc(Cl)cc3)c3c(sc(C)c3C)-n3c(C)nnc32)C(C)(C)C)cc1` [15a], the DC50 in test [1] and in test [2] was roughly 10 nM throughout. Moreover, the “pEC50, antiproliferative activity” value in test [3] (72 h) was determined as 6.5. In addition, the Emax in test [3] (Homo sapiens, 72 h, read-out: Emax, maximal response at highest concentration) was 92%. Besides, the EC50 in test [3] (Homo sapiens, read-out: EC50, antiproliferative activity) was 330 nM; in test [3] (Homo sapiens, read-out: pEC50, antiproliferative activity (converted)), 330 nM.
